Columns and labels:
Type in all cases: cell-based, human
CCRF-CEM = experiment: NCI60 antitumor screening; details: 10 μM one-dose
HL-60(TB) = experiment: NCI60 antitumor screening; details: 10 μM one-dose
K-562 = experiment: NCI60 antitumor screening; details: 10 μM one-dose
MOLT-4 = experiment: NCI60 antitumor screening; details: 10 μM one-dose
RPMI-8226 = experiment: NCI60 antitumor screening; details: 10 μM one-dose
SR = experiment: NCI60 antitumor screening; details: 10 μM one-dose
A549/ATCC = experiment: NCI60 antitumor screening; details: 10 μM one-dose
EKVX = experiment: NCI60 antitumor screening; details: 10 μM one-dose
HOP-62 = experiment: NCI60 antitumor screening; details: 10 μM one-dose
HOP-92 = experiment: NCI60 antitumor screening; details: 10 μM one-dose
NCI-H226 = experiment: NCI60 antitumor screening; details: 10 μM one-dose
NCI-H23 = experiment: NCI60 antitumor screening; details: 10 μM one-dose
NCI-H322M = experiment: NCI60 antitumor screening; details: 10 μM one-dose
NCI-H460 = experiment: NCI60 antitumor screening; details: 10 μM one-dose
NCI-H522 = experiment: NCI60 antitumor screening; details: 10 μM one-dose
COLO 205 = experiment: NCI60 antitumor screening; details: 10 μM one-dose
HCC-2998 = experiment: NCI60 antitumor screening; details: 10 μM one-dose
HCT-116 = experiment: NCI60 antitumor screening; details: 10 μM one-dose
HCT-15 = experiment: NCI60 antitumor screening; details: 10 μM one-dose
HT29 = experiment: NCI60 antitumor screening; details: 10 μM one-dose
KM12 = experiment: NCI60 antitumor screening; details: 10 μM one-dose
SW-620 = experiment: NCI60 antitumor screening; details: 10 μM one-dose
SF-268 = experiment: NCI60 antitumor screening; details: 10 μM one-dose
SF-295 = experiment: NCI60 antitumor screening; details: 10 μM one-dose
SF-539 = experiment: NCI60 antitumor screening; details: 10 μM one-dose
SNB-19 = experiment: NCI60 antitumor screening; details: 10 μM one-dose
SNB-75 = experiment: NCI60 antitumor screening; details: 10 μM one-dose
U251 = experiment: NCI60 antitumor screening; details: 10 μM one-dose
LOX IMVI = experiment: NCI60 antitumor screening; details: 10 μM one-dose
MALME-3M = experiment: NCI60 antitumor screening; details: 10 μM one-dose
M14 = experiment: NCI60 antitumor screening; details: 10 μM one-dose
MDA-MB-435 = experiment: NCI60 antitumor screening; details: 10 μM one-dose
SK-MEL-2 = experiment: NCI60 antitumor screening; details: 10 μM one-dose
SK-MEL-28 = experiment: NCI60 antitumor screening; details: 10 μM one-dose
SK-MEL-5 = experiment: NCI60 antitumor screening; details: 10 μM one-dose
UACC-257 = experiment: NCI60 antitumor screening; details: 10 μM one-dose
UACC-62 = experiment: NCI60 antitumor screening; details: 10 μM one-dose
IGROV1 = experiment: NCI60 antitumor screening; details: 10 μM one-dose
OVCAR-3 = experiment: NCI60 antitumor screening; details: 10 μM one-dose
OVCAR-4 = experiment: NCI60 antitumor screening; details: 10 μM one-dose
OVCAR-5 = experiment: NCI60 antitumor screening; details: 10 μM one-dose
OVCAR-8 = experiment: NCI60 antitumor screening; details: 10 μM one-dose
NCI/ADR-RES = experiment: NCI60 antitumor screening; details: 10 μM one-dose
SK-OV-3 = experiment: NCI60 antitumor screening; details: 10 μM one-dose
786–0 = experiment: NCI60 antitumor screening; details: 10 μM one-dose
A498 = experiment: NCI60 antitumor screening; details: 10 μM one-dose
ACHN = experiment: NCI60 antitumor screening; details: 10 μM one-dose
CAKI-1 = experiment: NCI60 antitumor screening; details: 10 μM one-dose
RXF 393 = experiment: NCI60 antitumor screening; details: 10 μM one-dose
SN12C = experiment: NCI60 antitumor screening; details: 10 μM one-dose
TK-10 = experiment: NCI60 antitumor screening; details: 10 μM one-dose
UO-31 = experiment: NCI60 antitumor screening; details: 10 μM one-dose
PC-3 = experiment: NCI60 antitumor screening; details: 10 μM one-dose
DU-145 = experiment: NCI60 antitumor screening; details: 10 μM one-dose
MCF7 = experiment: NCI60 antitumor screening; details: 10 μM one-dose
MDA-MB-231/ATCC = experiment: NCI60 antitumor screening; details: 10 μM one-dose
HS 578T = experiment: NCI60 antitumor screening; details: 10 μM one-dose
BT-549 = experiment: NCI60 antitumor screening; details: 10 μM one-dose
T-47D = experiment: NCI60 antitumor screening; details: 10 μM one-dose
MDA-MB-468 = experiment: NCI60 antitumor screening; details: 10 μM one-dose
NCI60 cell lines panel = experiment: NCI60 antitumor screening, full panel; details: 10 μM one-dose, mean over NCI60
Experimental: The National Cancer Institute (NCI), Bethesda, Maryland, United States, selected all of the novel synthesized compounds (2b–d, 3a–d and 4a–p) for in vitro antitumor screening at a single concentration of 10 μM toward the NCI60 cell lines panel covering leukaemia, non-small cell lungs, colon, central nervous system (CNS), melanoma, ovarian, renal, prostate, and breast cancer cells.[32–35] The data were reported as a mean graph of the percent growth of the treated cell lines and expressed as percentage growth inhibition (GI%) in Table 1 and ESI 1.
(2) The molar concentration of the compound responsible for total growth inhibition, also known as total growth inhibition (TGI).
Regarding subpanel selectivity toward certain cancer type, the method of determining a compound's selectivity index is to divide the full panel MG-MID (μM) value by each single subpanel. Values above six indicate high selectivity against the subpanel; moderate selectivity is denoted by values between three and six. Conversely, compounds are termed nonselective if their selectivity is less than three.[30,37]

Cc1ccc(CSc2nc(-c3ccc(F)cc3)c(C#N)c(=O)[nH]2)cc1 [2d, 4-(4-Fluorophenyl)-2-((4-methylbenzyl)thio)-6-oxo-1,6-dihydropyrimidine-5-carbonitrile]
10.16%: GI% (A549/ATCC)
10.82%: GI% (MCF7)
10.72%: GI% (HT29)
15.75%: GI% (BT-549)
43.38%: GI% (HL-60(TB))
11.64%: GI% (MOLT-4)
15.77%: GI% (HCT-15)
13.50%: GI% (T-47D)
12.91%: GI% (NCI-H522)
— (GI% < 10): GI% (CCRF-CEM) | GI% (K-562) | GI% (RPMI-8226) | GI% (SR) | GI% (EKVX) | GI% (HOP-62) | GI% (HOP-92) | GI% (NCI-H226) | GI% (NCI-H23) | GI% (NCI-H322M) | GI% (NCI-H460) | GI% (COLO 205) | GI% (HCC-2998) | GI% (HCT-116) | GI% (KM12) | GI% (SW-620) | GI% (SF-268) | GI% (SF-295) | GI% (SF-539) | GI% (SNB-19) | GI% (SNB-75) | GI% (U251) | GI% (LOX IMVI) | GI% (MALME-3M) | GI% (M14) | GI% (MDA-MB-435) | GI% (SK-MEL-2) | GI% (SK-MEL-28) | GI% (SK-MEL-5) | GI% (UACC-257) | GI% (UACC-62) | GI% (IGROV1) | GI% (OVCAR-3) | GI% (OVCAR-4) | GI% (OVCAR-5) | GI% (OVCAR-8) | GI% (NCI/ADR-RES) | GI% (SK-OV-3) | GI% (786–0) | GI% (A498) | GI% (ACHN) | GI% (CAKI-1) | GI% (RXF 393) | GI% (SN12C) | GI% (TK-10) | GI% (UO-31) | GI% (PC-3) | GI% (DU-145) | GI% (MDA-MB-231/ATCC) | GI% (HS 578T) | GI% (MDA-MB-468) | Mean GI% (NCI60 cell lines panel)

Source: paper PMC10620772, “Design, synthesis, and biological evaluation of new pyrimidine-5-carbonitrile derivatives as novel anti-cancer, dual EGFR^WT/COX-2 inhibitors with docking studies” (RSC Advances, 2023)
